US20260234144A1 (TAY THERAPEUTICS LIMITED, priority 2023, published 2026)

Test system: R223X stop codon in the mutated luciferase gene, ADXC8 luciferase reporter cell line
Assay: cells
Format: cell-based
Details: 24 h, ADXC8 cells, 24 hours; for Emax: read-out: Fold Over Control, maximum fold response relative to 200 μM G418; for EC (100% of 200 uM G418 response): read-out: pC100%, negative logarithm of the concentration giving the same response as 200 μM G418

In the case of CNc1nc(N[C@H]2CN(C3CC3)C[C@@H]2O)nc2nc(C)cc(C)c12 [Example 612], the Emax was 100 to 3000% and the EC (100% of 200 uM G418 response) was 10 to 100 µM.

For CNc1nc(N[C@H]2CN(C)C[C@H]2F)nc2nc(C)c(Br)c(C)c12 [Example 613], the EC (100% of 200 uM G418 response) was 1 to 10 µM.

CNc1nc(N[C@H]2CN(C)C[C@H]2F)nc2nc(C)c(Cl)c(C)c12 [Example 614] was tested, and the EC (100% of 200 uM G418 response) was 1 to 10 µM.

With CNc1nc(N[C@H]2CN(C)C[C@@H]2O)nc2nc(C)c(Br)c(C)c12 [Example 615] the EC (100% of 200 uM G418 response) was 1 to 10 µM.

Compound CNc1nc(N[C@@H]2CCN(C)C2)nc2nc(OC)cc(C)c12 [Example 616] has an Emax of 100 to 3000% and an EC (100% of 200 uM G418 response) of 1 to 10 µM.

Work on CNc1cc(N[C@H]2CNC[C@H]2OC)nc2nc3c(c(C)c12)CCC3 [Example 617] yielded an Emax of 100 to 3000% and an EC (100% of 200 uM G418 response) of 1 to 10 µM.

With CNc1cc(N[C@H]2CNC[C@H]2O)nc2nc3c(c(C)c12)CCC3 [Example 618] the EC (100% of 200 uM G418 response) was 1 to 10 µM.

CNc1cc(N[C@H]2CN(C)C[C@H]2O)nc2nc3c(c(C)c12)CCC3 [Example 619] was tested, and the Emax was 100 to 3000% and the EC (100% of 200 uM G418 response) was 1 to 10 µM.

In the case of CNc1c(C)c(N[C@@H]2CCN(C)C2)nc2nc(C)cc(C)c12 [Example 620], the Emax was 0 to 100% and the EC (100% of 200 uM G418 response) was > 31.6 µM.

Work on CNc1nc(N[C@H]2CN(Cc3ccccc3)C[C@H]2F)nc2nc(C)cc(C)c12 [Example 621] yielded an Emax of 100 to 3000% and an EC (100% of 200 uM G418 response) of 10 to 100 µM.

CNc1nc(N[C@H]2CN(Cc3ccccc3)C[C@@H]2O)nc2nc(C)cc(C)c12 [Example 622] showed an Emax of 100 to 3000% and an EC (100% of 200 uM G418 response) of 1 to 10 µM.

Work on CNc1nc(N[C@H]2CNC[C@@H]2OC)nc2nc3c(c(C)c12)CCC3 [Example 623] yielded an EC (100% of 200 uM G418 response) of 0.1 to 1 µM.

With CNc1nc(N[C@H]2CN(C3CCC3)C[C@@H]2O)nc2nc(C)cc(C)c12 [Example 624] the Emax was 100 to 3000% and the EC (100% of 200 uM G418 response) was 1 to 10 µM.

CNc1nc(N[C@H]2CN(C(C)C)C[C@@H]2O)nc2nc(C)cc(C)c12 [Example 625] showed an Emax of 100 to 3000% and an EC (100% of 200 uM G418 response) of 1 to 10 µM.

For CCN1C[C@H](Nc2nc(NC)c3c(C)cc(C)nc3n2)[C@@H](O)C1 [Example 626], the Emax was 100 to 3000% and the EC (100% of 200 uM G418 response) was 1 to 10 µM.

CNc1nc(N[C@H]2CN(C3CCC3)C[C@H]2F)nc2nc(C)cc(C)c12 [Example 627] was tested, and the Emax was 100 to 3000% and the EC (100% of 200 uM G418 response) was 10 to 100 µM.

CCN1C[C@@H](F)[C@@H](Nc2nc(NC)c3c(C)cc(C)nc3n2)C1 [Example 628] showed an EC (100% of 200 uM G418 response) of 1 to 10 µM.

Work on CNc1nc(N[C@H]2CN(C)C[C@@H]2O)nc2nc(C)c(Cl)c(C)c12 [Example 629] yielded an EC (100% of 200 uM G418 response) of 1 to 10 µM.

CNc1nc(N[C@@H]2CCN(C)C2)nc2nc(N(C)C)cc(C)c12 [Example 630] showed an Emax of 100 to 3000% and an EC (100% of 200 uM G418 response) of 10 to 100 µM.

CNc1nc(N[C@@H]2CCN(C)C2)nc2nc(C)cc(OC)c12 [Example 631] showed an Emax of 100 to 3000% and an EC (100% of 200 uM G418 response) of 1 to 10 µM.

With CCNc1nc(N[C@]23C[C@H]2CN(C)C3)nc2nc(C)cc(C)c12 [Example 632] the Emax was 100 to 3000% and the EC (100% of 200 uM G418 response) was 0.1 to 1 µM.

CNc1cc(N[C@H]2CNC[C@H]2F)nc2nc3c(c(C)c12)CCC3 [Example 633] was tested, and the EC (100% of 200 uM G418 response) was 1 to 10 µM.

Compound CNc1cc(N[C@H]2CN(C)C[C@@H]2F)nc2nc3c(c(C)c12)CCC3 [Example 634] has an Emax of 100 to 3000% and an EC (100% of 200 uM G418 response) of 0.1 to 1 µM.

CNc1cc(N[C@H]2CNC[C@@H]2O)nc2nc3c(c(C)c12)CCC3 [Example 635] was tested, and the EC (100% of 200 uM G418 response) was 1 to 10 µM.

Work on Cc1cc(C)c2c(NCC(F)F)nc(N[C@@H]3CCN(C)C3)nc2n1 [Example 636] yielded an EC (100% of 200 uM G418 response) of 1 to 10 µM.

In the case of CNc1nc(N[C@@]2(C)CCNC2)nc2nc(C)cc(C)c12 [Example 637], the Emax was 0 to 100% and the EC (100% of 200 uM G418 response) was > 31.6 µM.

With CNc1nc(N[C@@]2(C)CCN(C)C2)nc2nc(C)cc(C)c12 [Example 638] the Emax was 0 to 100% and the EC (100% of 200 uM G418 response) was > 31.6 µM.

In the case of Cc1cc(C)c2c(N)nc(NC3CCN(Cc4ccccc4)CC3(F)F)nc2n1 (stereo not shown) [Example 639], the Emax was 0 to 100% and the EC (100% of 200 uM G418 response) was > 31.6 µM.
